Results published in patent US6153604A, “Therapeutic substituted guanidines” (Cambridge NeuroScience, Inc., priority 1995, dated 2000).
pIC50: −log10 of the molar value. Where a name gives a salt, the structure may show the parent alone.

Tests used:
PCP receptor = PCP receptor radioligand binding assay ([3H]MK-801, rat brain membranes); conditions: read-out: [3H-MK801] IC50; displacement of [3H]MK-801, rat brain membranes
sigma receptor = assay: Sigma receptor binding assay ([3H]DTG, guinea pig brain membrane homogenates); conditions: displacement of [3H]DTG, guinea pig brain membranes
Experimental: Sigma Receptor Binding Assay
Briefly, frozen whole guinea-pig brains (Biotrol, Indianapolis, Ind.) were homogenized in 10 volumes (w/v) of ice-cold 320 mM sucrose using a Brinkman polytron. The homogenate was centrifuged at 1,000×g for 20 minutes at 4° C. The supernatant was centrifuged at 20,000×g for 20 minutes at 4° C. The resulting pellet was resuspended in 10 initial volumes of 50 mM Tris/HCl buffer at pH 7.4 and centrifuged at 20,000×g for 20 minutes at 4° C. The resulting pellet was resuspended in 5 initial volumes ice-cold 50 mM Tris/HCl (pH 7.4), and the final volume was adjusted to yield a protein concentration of 3 mg/ml. Aliquots of 20-ml were stored at -70° C. until used, with no detectable loss of binding.
The protein concentration in the 1-ml final incubation volume was 800 μg/ml, corresponding to 32 mg of brain tissue (original wet weight) and to a tissue concentration within the linear range for specific binding. […] Incubations were terminated after 90 minutes at room temperature by addition of 4 ml of ice-cold 50 mM Tris/HCl (pH 7.4) and rapid filtration of the membrane suspension through Whatman GF/B glass-fiber filters under vacuum, using a 48-well cell harvester (Brandel). The filters were washed 2 times with 4 ml of 50 mM Tris/HCl (pH 7.4). […] IC50 values were determined by non-linear regression analysis.

Q: With `CCc1cccc(NC(=N)Nc2cccc(Cl)c2)c1` [Compd. No. 3 (Table I)] as the compound, how does the pIC50 (PCP receptor) read?
A: 6.84

Q: What about the pIC50 (sigma receptor) of the same compound?
A: 7.81

Q: `CCc1cccc(NC(=N)Nc2cc(C(F)(F)F)ccc2Br)c1` [Compd. No. 4 (Table I), N-(3-Ethylphenyl)-N'-(2-bromo-5-trifluoromethylphenyl)guanidine hydrochloride] was tested. Which pIC50 (PCP receptor) did it give?
A: 7.06

Q: What about the pIC50 (sigma receptor) of the same compound?
A: 7.99

Q: `CCc1cccc(NC(=N)Nc2cc(C(F)(F)F)ccc2Cl)c1` [Compd. No. 6 (Table I), N-(3-Ethylphenyl)-N'-(2-chloro-5-trifluoromethylphenyl)guanidine hydrochloride] was tested. Which pIC50 (PCP receptor) did it give?
A: 7.24

Q: And the pIC50 (sigma receptor)?
A: 7.85

Q: With `CCc1cccc(NC(=N)Nc2cc(C)ccc2Cl)c1` [Compd. No. 7 (Table I), N-(3-Ethylphenyl)-N'-(2-chloro-5-methylphenyl)guanidine hydrochloride] as the compound, how does the pIC50 (PCP receptor) read?
A: 7.00

Q: What about the pIC50 (sigma receptor) of the same compound?
A: 7.51

Q: `CCc1cccc(NC(=N)Nc2cc(CC)ccc2Cl)c1` [Compd. No. 8 (Table I), N-(3-Ethylphenyl)-N'-(2-chloro-5-ethylphenyl)guanidine hydrochloride] was tested. Which pIC50 (PCP receptor) did it give?
A: 7.34

Q: And the pIC50 (sigma receptor)?
A: 8.69

Q: Which results are given for `CCc1cccc(NC(=N)Nc2cccc(CC)c2)c1` [Compd. No. 9 (Table I)]?
A: pIC50 (PCP receptor): 6.77; pIC50 (sigma receptor): 8.10

Q: What does the source list for `CCc1cccc(N(C)C(=N)Nc2cc(Cl)ccc2Cl)c1` [Compd. No. 10 (Table I), N-(3-ethylphenyl)-N-methyl-N'-(2,5-dichlorophenyl)guanidine hydrochloride]?
A: pIC50 (PCP receptor): 7.07; pIC50 (sigma receptor): 7.55

Q: With `CCc1cccc(N(C)C(=N)Nc2cc(Br)ccc2Br)c1` [Compd. No. 11 (Table I), N-(3-ethylphenyl)-N-methyl-N'-(2,5-dibromophenyl)guanidine hydrochloride] as the compound, how does the pIC50 (PCP receptor) read?
A: 7.32

Q: What about the pIC50 (sigma receptor) of the same compound?
A: 7.40

Q: What does the source list for `CCc1cccc(N(C)C(=N)Nc2cccc(Cl)c2)c1` [Compd. No. 12 (Table I)]?
A: pIC50 (PCP receptor): 6.19; pIC50 (sigma receptor): 7.36

Q: How did the pIC50 (PCP receptor) turn out when `CCc1cccc(N(C)C(=N)Nc2cc(C(F)(F)F)ccc2Br)c1` [Compd. No. 13 (Table I), N-(3-Ethylphenyl)-N-methyl-N'-(2-bromo-5-trifluoromethylphenyl)guanidine hydrochloride] was run?
A: 6.99

Q: What about the pIC50 (sigma receptor) of the same compound?
A: 6.68

Q: With `CCc1cccc(N(C)C(=N)Nc2cc(C(F)(F)F)ccc2F)c1` [Compd. No. 14 (Table I), N-(3-Ethylphenyl)-N-methyl-N'-(2-fluoro-5-trifluoromethylphenyl)guanidine hydrochloride] as the compound, how does the pIC50 (PCP receptor) read?
A: 6.60

Q: What about the pIC50 (sigma receptor) of the same compound?
A: 7.07

Q: `CCc1cccc(N(C)C(=N)Nc2cc(C(F)(F)F)ccc2Cl)c1` [Compd. No. 15 (Table I), N-(3-Ethylphenyl)-N-methyl-N'-(2-chloro-5-trifluoromethylphenyl)guanidine hydrochloride] was tested. Which pIC50 (PCP receptor) did it give?
A: 6.88

Q: What about the pIC50 (sigma receptor) of the same compound?
A: 6.92

Q: Which results are given for `CCc1cccc(N(C)C(=N)Nc2cc(CC)ccc2Cl)c1` [Compd. No. 17 (Table I), N-(3-Ethylphenyl)-N-methyl-N'-(2-chloro-5-ethylphenyl)guanidine hydrochloride]?
A: pIC50 (PCP receptor): 7.28; pIC50 (sigma receptor): 6.94

Q: With `CCc1cccc(N(C)C(=N)Nc2cccc(Br)c2)c1` [Compd. No. 19 (Table I)] as the compound, how does the pIC50 (PCP receptor) read?
A: 6.98

Q: What about the pIC50 (sigma receptor) of the same compound?
A: 7.40

Q: How did the pIC50 (PCP receptor) turn out when `CCc1cccc(N(C)C(=N)Nc2cc(CC)ccc2F)c1` [Compd. No. 20 (Table I), N-(3-Ethylphenyl)-N-methyl-N'-(2-fluoro-5-ethylphenyl)guanidine hydrochloride] was run?
A: 6.90

Q: What about the pIC50 (sigma receptor) of the same compound?
A: 6.95

Q: How did the pIC50 (PCP receptor) turn out when `CCc1cccc(NC(=N)Nc2cc(CC)ccc2F)c1` [Compd. No. 21 (Table I), N-(3-Ethylphenyl)-N'-(2-fluoro-5-ethylphenyl)guanidine hydrochloride] was run?
A: 7.19

Q: What about the pIC50 (sigma receptor) of the same compound?
A: 8.13

Q: Which results are given for `CCc1cccc(N(C)C(=N)Nc2cc(CC)ccc2Br)c1` [Compd. No. 22 (Table I), N-(3-Ethylphenyl)-N-methyl-N'-(2-bromo-5-ethylphenyl)guanidine hydrochloride]?
A: pIC50 (PCP receptor): 7.78; pIC50 (sigma receptor): 6.69

Q: With `CCc1cccc(NC(=N)Nc2cc(CC)ccc2Br)c1` [Compd. No. 23 (Table I), N-(3-Ethylphenyl)-N'-(2-bromo-5-ethylphenyl)guanidine hydrochloride] as the compound, how does the pIC50 (PCP receptor) read?
A: 7.42

Q: What about the pIC50 (sigma receptor) of the same compound?
A: 8.29

Q: `CCc1cccc(N(C)C(=N)Nc2cc(SC)ccc2Cl)c1` [Compd. No. 24 (Table I), N-13-Ethylphenyl)-N-methyl-N'-(2-chloro-5-methylthiophenyl)guanidine hydrochloride] was tested. Which pIC50 (PCP receptor) did it give?
A: 8.17

Q: And the pIC50 (sigma receptor)?
A: 6.51

Q: `CCc1cccc(NC(=N)Nc2cc(SC)ccc2Cl)c1` [Compd. No. 25 (Table I), N-(3-Ethylphenyl)-N'-(2-chloro-5-methylthiophenyl)guanidine hydrochloride] was tested. Which pIC50 (PCP receptor) did it give?
A: 7.81

Q: What about the pIC50 (sigma receptor) of the same compound?
A: 7.80

Q: `CCc1cccc(N(C)C(=N)N(C)c2cc(Cl)ccc2Cl)c1` [Compd. No. 26 (Table I), N-(3-Ethylphenyl)-N-methyl-N'-(2,5-dichlorophenyl)-N'-methylguanidine hydrochloride] was tested. Which pIC50 (PCP receptor) did it give?
A: 7.03

Q: With `CCc1cccc(N(C)C(=N)N(C)c2cc(Br)ccc2Br)c1` [Compd. No. 27 (Table I), N-(3-Ethylphenyl)-N-methyl-N'-(2,5-dibromophenyl)-N'-methylguanidine hydrochloride] as the compound, how does the pIC50 (PCP receptor) read?
A: 7.45

Q: And the pIC50 (sigma receptor)?
A: 6.42

Q: How did the pIC50 (PCP receptor) turn out when `CCc1cccc(N(C)C(=N)N(C)c2cc(CC)ccc2Cl)c1` [Compd. No. 28 (Table I), N-(3-Ethylphenyl)-N-methyl-N'-(2-chloro-5-ethylphenyl)-N'-methylguanidine hydrochloride] was run?
A: 6.84

Q: Which results are given for `CCc1ccc(Cl)c(NC(=N)Nc2cc(C)ccc2Cl)c1` [Compd. No. 29 (Table I)]?
A: pIC50 (PCP receptor): 7.26; pIC50 (sigma receptor): 7.44

Q: With `N=C(Nc1cc(Cl)ccc1Cl)Nc1cccc2ccccc12` [Compd. No. 31 (Table I), N-(1-naphthyl)-N'-(2,5-dichlorophenyl)guanidine] as the compound, how does the pIC50 (PCP receptor) read?
A: 7.39

Q: And the pIC50 (sigma receptor)?
A: 7.60

Q: With `N=C(Nc1cc(Br)ccc1Br)Nc1cccc2ccccc12` [Compd. No. 32 (Table I), N-(1-Naphthyl)-N'-(2,5-dibromophenyl)guanidine hydrochloride] as the compound, how does the pIC50 (PCP receptor) read?
A: 7.31

Q: And the pIC50 (sigma receptor)?
A: 7.42

Q: Which results are given for `Cc1ccc(C)c(NC(=N)Nc2cccc3ccccc23)c1` [Compd. No. 33 (Table I), N-(1-Naphthyl)-N'-(2,5-dimethylphenyl)guanidine hydrochloride]?
A: pIC50 (PCP receptor): 7.10; pIC50 (sigma receptor): 7.56

Q: `Cc1cccc(NC(=N)Nc2cccc3ccccc23)c1` [Compd. No. 38 (Table I)] was tested. Which pIC50 (PCP receptor) did it give?
A: 6.72

Q: And the pIC50 (sigma receptor)?
A: 7.12

Q: How did the pIC50 (PCP receptor) turn out when `N=C(Nc1cc(C(F)(F)F)ccc1F)Nc1cccc2ccccc12` [Compd. No. 39 (Table I), N-(1-Naphthyl)-N'-(2-fluoro-5-trifluoromethylphenyl)guanidine hydrochloride] was run?
A: 7.42

Q: And the pIC50 (sigma receptor)?
A: 7.10

Q: Which results are given for `N=C(Nc1cc(C(F)(F)F)ccc1Cl)Nc1cccc2ccccc12` [Compd. No. 40 (Table I), N-(1-Naphthyl)-N'-(2-chloro-5-trifluoromethylphenyl)guanidine hydrochloride]?
A: pIC50 (PCP receptor): 7.41; pIC50 (sigma receptor): 7.28

Q: With `CN(C(=N)Nc1cccc2ccccc12)c1cccc(Br)c1` [Compd. No. 53 (Table I)] as the compound, how does the pIC50 (PCP receptor) read?
A: 7.27

Q: How did the pIC50 (PCP receptor) turn out when `CSc1cccc(N(C)C(=N)Nc2cc(SC)ccc2Br)c1` [Compd. No. 63 (Table I), N-(3-Methylthiophenyl)-N-methyl-N'-(2-bromo-5-methylthiophenyl)guanidine] was run?
A: 8.67

Q: With `CCc1ccc(Br)c(NC(=N)N(C)c2cccc(SC)c2)c1` [Compd. No. 64 (Table I), N-(3-Methylthiophenyl)-N-methyl-N'-(2-bromo-5-ethylphenyl)guanidine hydrochloride] as the compound, how does the pIC50 (sigma receptor) read?
A: 6.74

Q: How did the pIC50 (PCP receptor) turn out when `CSc1cccc(N(C)C(=N)Nc2cc(Br)ccc2Br)c1` [Compd. No. 65 (Table I), N-(3-Methylthiophenyl)-N-methyl-N'-(2,5-dibromophenyl)guanidine hydrochloride] was run?
A: 8.27

Q: How did the pIC50 (sigma receptor) turn out when `CN(C(=N)Nc1cc(Cl)ccc1Cl)c1cccc(C(F)(F)F)c1` [Compd. No. 68 (Table I), N-(3-Trifluoromethylphenyl)-N-methyl-N'-(2,5-dichlorophenyl)guanidine hydrochloride] was run?
A: 6.96

Q: `CSc1ccc(Cl)c(NC(=N)N(C)c2cccc(Br)c2)c1` [Compd. No. 72 (Table I), N-(3-Bromophenyl)-N-methyl-N'-(2-chloro-5-methylthiophenyl)guanidine hydrochloride] was tested. Which pIC50 (PCP receptor) did it give?
A: 8.33

Q: How did the pIC50 (PCP receptor) turn out when `CN(C(=N)Nc1cc(Br)ccc1Br)c1cccc(OC(F)(F)F)c1` [Compd. No. 73 (Table I), N-(3-Trifluoromethoxyphenyl)-N'-(2,5-dibromophenyl)-N-methylguanidine hydrochloride] was run?
A: 7.59

Q: `CCc1ccc(Br)c(NC(=N)N(C)c2cccc(OC(F)(F)F)c2)c1` [Compound 74] was tested. Which pIC50 (PCP receptor) did it give?
A: 7.80

Q: With `CN(C(=N)Nc1cc(Br)ccc1Br)c1cccc(S(C)(=O)=O)c1` [Compound 75] as the compound, how does the pIC50 (PCP receptor) read?
A: 6.28

Q: How did the pIC50 (PCP receptor) turn out when `CN(C(=N)Nc1cc(Br)ccc1Br)c1cccc([S+](C)[O-])c1` (stereo not shown) [Compound 76] was run?
A: 6.49

Q: `CSc1ccc(Cl)c(NC(=N)N(C)c2cccc(I)c2)c1` [Compound 77] was tested. Which pIC50 (PCP receptor) did it give?
A: 8.68

Q: `CCc1ccc(Cl)c(NC(=N)Nc2cccc(I)c2)c1` [Compound 78] was tested. Which pIC50 (PCP receptor) did it give?
A: 7.86
